This is an account of results in patent US8088890B2, “Peptides and peptidomimetic compounds, the manufacturing thereof as well as their use for preparing a therapeutically and/or preventively active pharmaceutical composition” (Fibrex Medical Research & Development GmbH, priority 2008, dated 2012).

In the experiment the test system is RhoA. Briefly: thrombin induced RhoA activation in human umbilical vein endothelial cell (HUVEC) culture (Rho pull-down, Western blot). Type of experiment: cell-based. The note with it: 5 U/ml thrombin alone, 5 min. On the procedure:
The biological effect of the compounds was established in a model thrombin induced RhoA activation in human umbilical vein endothelial cell (HUVEC) culture.
HUVEC are grown to confluence under standard conditions. Before induction of Rho activity HUVEC were starved for 4 h by using IMDM (Gibco) without growth factor and serum supplements. After the starvation period 5 U/ml Thrombin (Calbiochem) or 5 U thrombin plus 50 μg/ml of test compound are added to the starvation medium for 1, 5 and 10 min. Active RhoA was isolated using Rho Assay Reagent from Upstate according to manufactures instructions. Isolates were separated on a 15% polyacrylamide gel and blotted on Nitrocellulose-Membrane (Bio-Rad). RhoA was detected by using Anti-Rho (-A, -B, -C), clone55 from Upstate (1:500).
Background: Immunoblotting shows a protein as a band on a membrane.

On to thrombin, for which the “Relative RhoA stimulation compared to unstimulated control” value was 6.2.
